Among the data in ChEMBL document CHEMBL4152187, “Plant-derived mPGES-1 inhibitors or suppressors: A new emerging trend in the search for small molecules to combat inflammation” (Eur J Med Chem, 2018) are IC50, inhibition and Activity values, retold here.

Usually IC50 stands for the concentration that gives 50% inhibition. A word on the inhibition: it is the change of the read-out against control, counted positive when it falls.

The target of test [1] is T1, Prostaglandin E synthase (Homo sapiens, UniProt O14684).
T1 sequence (O14684 whole entry): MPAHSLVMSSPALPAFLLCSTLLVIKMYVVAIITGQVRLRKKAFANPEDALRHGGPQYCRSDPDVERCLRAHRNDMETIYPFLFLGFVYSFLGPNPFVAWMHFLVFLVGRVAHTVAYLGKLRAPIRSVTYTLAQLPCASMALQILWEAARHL
As to the kind of experiment: Inhibition of mPGES1 in human A549 cell microsomal membrane using pGH2 as substrate pretreated for 15 mins followed by substrate addition and measured after 1 min by RP-HPLC method.

In test [2] the test system is J774. Nature of the test: Inhibition of LPS-stimulated mPGES1 expression in mouse J774 cells. The format is functional, cell-based.
Test [3] addresses T2, Prostaglandin E synthase (Homo sapiens) (UniProt O14684).
T2 sequence (whole entry): T1 sequence (O14684 whole entry)
As to the kind of experiment: Inhibition of mPGES1 in human HeLa cells assessed as reduction in PGE2 production at 50 uM by enzyme immunoassay relative to control. The class given is cell-based.

Test [4] addresses Prostaglandin G/H synthase 2 (Homo sapiens) (UniProt P35354). As to the kind of experiment: Inhibition of COX2 in human A375 cells assessed as reduction in PGE2 production up to 20 uM by immunoblot analysis relative to control.
Test [5] has the same target. Nature of the test: Inhibition of COX2 in human Hs294 cells assessed as reduction in PGE2 production up to 20 uM by immunoblot analysis relative to control.
Test [6] concerns Rattus norvegicus. Nature of the test: Antiinflammatory activity against carrageenan-induced pleurisy in rat assessed as reduction in PGE2 level at 3.6 mg/kg, ip relative to control. The class given is functional. Details: scale not given: the % may be the effect or the level left.
The subject of test [7] is Rattus norvegicus. As to the kind of experiment: Antiinflammatory activity against carrageenan-induced pleurisy in rat assessed as reduction in cell infiltration at 3.6 mg/kg, ip relative to control. The format is functional. Details: scale not given: the % may be the effect or the level left.
Test [8] has as its system Rattus norvegicus. Nature of the test: Antiinflammatory activity against carrageenan-induced pleurisy in rat assessed as reduction in exudate formation at 3.6 mg/kg, ip relative to control. The format is functional. Details: scale not given: the % may be the effect or the level left.
The target of test [9] is T1, Prostaglandin E synthase. Nature of the test: Inhibition of mPGES1 in human A549 cell microsomes.
Test [10] relates to J774. Nature of the test: Inhibition of LPS-induced mPGES1 mRNA expression in mouse J774 cells at 100 uM measured after 6 to 24 hrs by qRT-PCR analysis. The format is functional. A general note: Real-time PCR tracks product formation cycle by cycle.

Chain of Prostaglandin G/H synthase 2 (Homo sapiens) (P35354 whole entry, looked up): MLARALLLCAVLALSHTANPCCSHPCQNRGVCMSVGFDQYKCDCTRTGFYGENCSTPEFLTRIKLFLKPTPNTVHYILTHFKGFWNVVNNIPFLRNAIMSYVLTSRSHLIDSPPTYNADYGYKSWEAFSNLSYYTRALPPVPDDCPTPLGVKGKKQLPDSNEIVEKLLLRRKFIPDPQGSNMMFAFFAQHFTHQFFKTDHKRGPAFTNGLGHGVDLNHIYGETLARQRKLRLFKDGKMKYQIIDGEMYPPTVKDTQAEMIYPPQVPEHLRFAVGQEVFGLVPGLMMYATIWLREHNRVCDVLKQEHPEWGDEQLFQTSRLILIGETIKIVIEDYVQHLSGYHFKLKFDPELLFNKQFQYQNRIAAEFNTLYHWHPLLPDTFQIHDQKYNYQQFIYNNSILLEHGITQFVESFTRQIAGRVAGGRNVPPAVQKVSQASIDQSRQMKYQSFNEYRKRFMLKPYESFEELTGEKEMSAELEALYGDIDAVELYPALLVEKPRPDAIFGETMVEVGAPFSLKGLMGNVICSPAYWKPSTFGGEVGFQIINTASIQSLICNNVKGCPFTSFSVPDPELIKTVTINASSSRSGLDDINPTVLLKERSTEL

Turning to `CCCCCc1cc(OC(=O)c2c(O)cc(OC)cc2CCCCC)cc(O)c1C(=O)O`, in test [1], the IC50 was 430 nM.

As for `CC(=O)O[C@@H]1CC[C@@]2(C)[C@@H](CC[C@]3(C)[C@@H]2CC=C2[C@@H]4[C@@H](C)[C@H](C)CC[C@]4(C)CC[C@]23C)[C@@]1(C)C(=O)O`, the IC50 in test [1] is ≥ 30000 nM. `COc1cc(C[C@@H]2COC(=O)[C@]2(O)Cc2ccc(O)c(OC)c2)ccc1O` yielded a concentration for half-maximal inhibition (IC50) in [2] of 14000 nM. In the case of `CCCCCC(=O)Cc1cc(O)cc(O)c1C(=O)Oc1cc(O)c(C(=O)O)c(CCCCC)c1`, in test [1], the IC50 was found to be 400 nM. Still for that read-out and setting: to `C=C(C)[C@H](CC=C(C)C)C[C@]12C[C@H](CC=C(C)C)C(C)(C)[C@](CC=C(C)C)(C(=O)C(C(=O)c3ccc(O)c(O)c3)=C1O)C2=O` belongs 300 nM. For `COc1ccc2cc3[n+](cc2c1OC)CCc1cc2c(cc1-3)OCO2`, the inhibition in [3] was 71.9%; in test [4] it was 15 to 75%; in test [5], 16 to 63%.

On to `C[C@H]1[C@H](C)CC[C@]2(C)CC[C@]3(C)C(=CC(=O)[C@@H]4[C@@]5(C)CC[C@@H](O)[C@](C)(C(=O)O)[C@@H]5CC[C@]43C)[C@H]12` [11-KETO BOSWELLIC ACID], for which the IC50 in test [1] was 10000 nM.

Regarding `CCc1oc(=O)c(Cc2c(O)c(CC=C(C)C)c(O)c(C(C)=O)c2O)c(O)c1C` [ARZANOL], the Activity in test [6] is 47%; in [7], 48%; in test [8], 59%. As for `COC(=O)c1c(C)cc(OC(=O)c2c(C)cc(O)c(C=O)c2O)c(C)c1O` [ATRANORIN], the IC50 in test [1] is 1150 nM. As for `COc1cc(/C=C/C(=O)CC(=O)/C=C/c2ccc(O)c(OC)c2)ccc1O` [CURCUMIN], the 50% inhibitory concentration (IC50) in test [1] amounted to 300 nM. With `CCCCCCCCCCCC1=C(O)C(=O)C=C(O)C1=O` [EMBELIN], the IC50 in test [9] came to 200 nM. With `O=C(O[C@@H]1Cc2c(O)cc(O)cc2O[C@@H]1c1cc(O)c(O)c(O)c1)c1cc(O)c(O)c(O)c1` [EPIGALOCATECHIN GALLATE], in test [1], the IC50 was 1800 nM. Take `COc1cc(-c2oc3cc(O)cc(O)c3c(=O)c2O)ccc1O` [ISORHAMNETIN]: the inhibition at 100 µM in [10] was > 50%. The same measure, in the same setting: to `O=c1c(O)c(-c2ccc(O)cc2)oc2cc(O)cc(O)c12` [KAEMPFEROL] belongs > 50%.
